Data: PubChem BioAssay (NCI)
“And” between values parts separate entries of the source, which are not always exact repeats. Equal values may be shown once.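 Dose response: 5 concentrations. Exposure: 48 h. Format: 96-well plates. Endpoint: linear interpolation; highest concentration if not reached. Here, GI50 denotes the concentration required for 50% inhibition of growth. TGI marks complete inhibition of growth.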

Key:
Experiment in all cases: inhibition of tumour cell growth, NCI panel, 48 h
KM12 colon = tested on: KM12 colon
SN12C renal = tested on: SN12C renal
SK-MEL-2 melanoma = tested on: SK-MEL-2 melanoma
IGROV1 ovarian = tested on: IGROV1 ovarian
SR leukemia = tested on: SR leukemia
NCI-H522 lung = tested on: NCI-H522 lung
TK-10 renal = tested on: TK-10 renal
OVCAR-5 ovarian = tested on: OVCAR-5 ovarian
RXF 393 renal = tested on: RXF 393 renal
HOP-92 NSCLC = tested on: HOP-92 NSCLC

| SMILES | GI50 (KM12 colon) | TGI (KM12 colon) | GI50 (SN12C renal) | TGI (SN12C renal) | GI50 (SK-MEL-2 melanoma) | TGI (SK-MEL-2 melanoma) | GI50 (IGROV1 ovarian) | TGI (IGROV1 ovarian) | GI50 (SR leukemia) | TGI (SR leukemia) | GI50 (NCI-H522 lung) | TGI (NCI-H522 lung) | GI50 (TK-10 renal) | TGI (TK-10 renal) | GI50 (OVCAR-5 ovarian) | TGI (OVCAR-5 ovarian) | GI50 (RXF 393 renal) | TGI (RXF 393 renal) | GI50 (HOP-92 NSCLC) | TGI (HOP-92 NSCLC) |
| --- | --- | --- | --- | --- | --- | --- | --- | --- | --- | --- | --- | --- | --- | --- | --- | --- | --- | --- | --- | --- |
| COC1=CC(=O)c2nc(Cl)ccc2C1=O | 2.11 µM | 4.82 µM | 1.72 µM | 3.19 µM | 2.07 µM | 3.98 µM | 1.86 µM | 3.54 µM | 3.17 µM | > 100 µM | 1.7 µM | 3.57 µM | 2.09 µM | 4.23 µM | 2.06 µM | 4.88 µM | 1.58 µM | 2.97 µM | – | – |
| CCCCCCCCCCCCCB(O)O | > 100 µM and 35.8 µM | > 100 µM | – | > 100 µM | – | > 100 µM | – | > 100 µM | – | – | – | > 100 µM | – | > 100 µM | – | > 100 µM | > 100 µM and 29.5 µM | > 100 µM and 73.7 µM | > 100 µM and 25.1 µM | > 100 µM and 82.9 µM |
| [O-]c1c2c(nn1-c1ccc(Cl)cc1)c1ccccc1c[n+]2Cc1ccccc1 | – | > 100 µM | – | > 100 µM | – | > 100 µM | – | > 100 µM | – | > 100 µM | – | > 100 µM | – | > 100 µM | – | > 100 µM | – | 79.5 µM | – | – |
| C/C(=N\NC(=O)CC(=O)N(C(=O)c1ccc(Cl)cc1)c1ccc(C)cc1)c1ccccc1O | – | > 100 µM | – | > 100 µM | – | > 100 µM | – | > 100 µM | – | – | – | > 100 µM | – | > 100 µM | – | > 100 µM | – | > 100 µM | – | – |
| COCCn1cc(-c2csc(-c3c[nH]c4ccc(Br)cc34)n2)c2cccnc21 | 2.74 µM | > 100 µM | 7.72 µM | > 100 µM | 6.82 µM | 67.6 µM | 4.06 µM | > 100 µM | 3.25 µM | > 100 µM | 2.17 µM | 6.93 µM | – | – | 4.83 µM | > 100 µM | 3.3 µM | 11.2 µM | 4.39 µM | 30.7 µM |
| CCOC(=O)CNc1nnnn1C1OC(CO)C(O)C1O (stereo not given) | – | > 100 µM | – | > 100 µM | – | > 100 µM | – | > 100 µM | – | – | – | > 100 µM | – | > 100 µM | – | > 100 µM | – | > 100 µM | – | – |
| Cn1cnc([N+](=O)[O-])c1Sc1nccc(=O)[nH]1 | – | > 100 µM | – | > 100 µM | – | > 100 µM | – | > 100 µM | – | > 100 µM | – | > 100 µM | – | > 100 µM | – | > 100 µM | – | – | – | > 100 µM |
| COc1ccc(/C=C2\c3cc(OC)c(OC)c(OC)c3CC[C@@H]2O)cc1F | 0.373 µM | > 100 µM | 0.949 µM | > 100 µM | – | – | 0.812 µM | > 100 µM | 0.0899 µM | > 100 µM | 0.156 µM | 0.639 µM | – | – | 10.4 µM | > 100 µM | – | – | 25 µM | > 100 µM |
| Cn1c2ccccc2c2c(=O)n(CCCC(=O)OC(=NC3CCCCC3)NC3CCCCC3)c3c(-c4ccccc4)nnn3c21 | > 100 µM | > 100 µM | > 100 µM | > 100 µM | > 100 µM | > 100 µM | 15.4 µM | 94.4 µM | – | – | 69.5 µM | > 100 µM | > 100 µM | > 100 µM | > 100 µM | > 100 µM | 62.8 µM | > 100 µM | – | – |
| CC1(C)N=C(N)N=C(N)N1c1cccc(Br)c1 | 0.769 µM | > 100 µM | 4.09 µM | > 100 µM | > 100 µM | > 100 µM | 0.202 µM | – | 0.703 µM | > 100 µM | 4.29 µM | > 100 µM | – | > 100 µM | – | – | > 23.1 µM | > 100 µM | > 100 µM | > 100 µM |
| CCOC1CC2OC(=O)C1C=C2C(=O)OC (stereo not given) | – | > 100 µM | – | – | – | 65.7 µM | – | > 100 µM | – | – | – | 28.1 µM | – | 84.1 µM | – | > 100 µM | – | – | – | 73.1 µM |
| O=[N+]([O-])c1cc2c([N+](=O)[O-])cccc2o1 | – | 34.5 µM | – | 27.9 µM | – | 25.4 µM | – | – | – | – | – | 1.92 µM | – | 23.8 µM | – | – | – | 20 µM | – | 36 µM |
| CCOC(=O)C(C(O)c1ccc([N+](=O)[O-])cc1)P(=O)(OCC)OCC (stereo not given) | – | > 100 µM | – | > 100 µM | – | > 100 µM | – | > 100 µM | – | – | – | > 100 µM | – | > 100 µM | – | > 100 µM | – | > 100 µM | – | 99.5 µM |
| CCN(CC)CCNc1ccc2nc(C)n3c4ccc(O)cc4c(=O)c1c23 | – | 17.4 µM | – | 12.4 µM | – | 20.3 µM | – | 15.5 µM | – | 1.32 µM | – | 2.24 µM | – | – | – | 8.1 µM | – | – | – | – |
| CC(=O)O[C@H]1CC2C=CC3C(CCC31)O2 (stereo not given in full) | – | – | – | > 100 µM | – | – | – | > 100 µM | – | – | – | – | – | > 100 µM | – | – | – | > 100 µM | – | – |
| Cc1ccc(NC(=O)OCC(COc2ccc(Cl)cc2Cl)OC(=O)Nc2ccc(C)cc2)cc1 (stereo not given) | – | > 100 µM | – | > 100 µM | – | > 100 µM | – | > 100 µM | – | – | – | – | – | – | – | > 100 µM | – | > 100 µM | – | > 100 µM |
| CCCCCCCC(=O)[O][Hg][CH2]C1COC([CH2][Hg][O]C(=O)CCCCCCC)CO1 (stereo not given) | 16.3 µM | 30.6 µM | 15.7 µM | 30.5 µM | – | – | 18 µM | 38.3 µM | – | – | 4.8 µM | > 100 µM | 19.6 µM | 33.7 µM | 20.1 µM | 34.3 µM | 18.5 µM | 32.5 µM | 5.85 µM | 17.1 µM |
| C=C(CCCO)[C@@H]1CC[C@@](C)(O)[C@H]1C | – | > 100 µM | – | > 100 µM | – | > 100 µM | – | > 100 µM | – | > 100 µM | – | > 100 µM | – | > 100 µM | – | > 100 µM | – | > 100 µM | – | – |
| COc1cccc(NC(=O)C(=O)C2C=CCS2(=O)=O)c1 (stereo not given) | – | > 100 µM | – | > 100 µM | – | > 100 µM | – | > 100 µM | – | > 100 µM | – | > 100 µM | – | > 100 µM | – | > 100 µM | – | > 100 µM | – | – |
| CCOC(=O)C(=O)Nc1ccccc1C(C)C | – | > 100 µM | – | > 100 µM | – | > 100 µM | – | > 100 µM | – | > 100 µM | – | > 100 µM | – | > 100 µM | – | > 100 µM | – | – | – | > 100 µM |
| CCN(CC)CCn1c2ccccc2c(=O)c2c(OC)ccc(OC)c21 | – | > 100 µM | – | > 100 µM | – | > 100 µM | – | – | – | > 100 µM | – | > 100 µM | – | – | – | > 100 µM | – | 81.5 µM | – | > 100 µM |
